Experimental data published in patent publication US20230391739A1, “ARYL DERIVATIVES FOR TREATING TRPM3 MEDIATED DISORDERS” (Katholieke Universiteit Leuven, priority 2020, published 2023).

target: T1, mouse TRPM3α2 (mTRPM3) ion channel (Mus musculus, UniProt J9SQF3); test: TRPM3 ion channel driven Ca2+ uptake, Fluo-4 AM assay, PS-stimulated (mTRPM3); type: cell-based; details: TRPM3 overexpressing flip-in HEK293 cells stimulated with Pregnenolone sulfate (PS) 50 μM, activity ranges A, B, C
T1 construct: expressed in transfected cells; host or cells: flip-in HEK293
Method in brief: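 Ca²⁺ influx through mouse TRPM3α2, opened by 50 μM pregnenolone sulfate, was tracked with Fluo-4 AM in stably transfected HEK293 cells read directly after seeding onto pre-dispensed compound.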

T1 sequence (J9SQF3 1-1709 isoform J9SQF3-12): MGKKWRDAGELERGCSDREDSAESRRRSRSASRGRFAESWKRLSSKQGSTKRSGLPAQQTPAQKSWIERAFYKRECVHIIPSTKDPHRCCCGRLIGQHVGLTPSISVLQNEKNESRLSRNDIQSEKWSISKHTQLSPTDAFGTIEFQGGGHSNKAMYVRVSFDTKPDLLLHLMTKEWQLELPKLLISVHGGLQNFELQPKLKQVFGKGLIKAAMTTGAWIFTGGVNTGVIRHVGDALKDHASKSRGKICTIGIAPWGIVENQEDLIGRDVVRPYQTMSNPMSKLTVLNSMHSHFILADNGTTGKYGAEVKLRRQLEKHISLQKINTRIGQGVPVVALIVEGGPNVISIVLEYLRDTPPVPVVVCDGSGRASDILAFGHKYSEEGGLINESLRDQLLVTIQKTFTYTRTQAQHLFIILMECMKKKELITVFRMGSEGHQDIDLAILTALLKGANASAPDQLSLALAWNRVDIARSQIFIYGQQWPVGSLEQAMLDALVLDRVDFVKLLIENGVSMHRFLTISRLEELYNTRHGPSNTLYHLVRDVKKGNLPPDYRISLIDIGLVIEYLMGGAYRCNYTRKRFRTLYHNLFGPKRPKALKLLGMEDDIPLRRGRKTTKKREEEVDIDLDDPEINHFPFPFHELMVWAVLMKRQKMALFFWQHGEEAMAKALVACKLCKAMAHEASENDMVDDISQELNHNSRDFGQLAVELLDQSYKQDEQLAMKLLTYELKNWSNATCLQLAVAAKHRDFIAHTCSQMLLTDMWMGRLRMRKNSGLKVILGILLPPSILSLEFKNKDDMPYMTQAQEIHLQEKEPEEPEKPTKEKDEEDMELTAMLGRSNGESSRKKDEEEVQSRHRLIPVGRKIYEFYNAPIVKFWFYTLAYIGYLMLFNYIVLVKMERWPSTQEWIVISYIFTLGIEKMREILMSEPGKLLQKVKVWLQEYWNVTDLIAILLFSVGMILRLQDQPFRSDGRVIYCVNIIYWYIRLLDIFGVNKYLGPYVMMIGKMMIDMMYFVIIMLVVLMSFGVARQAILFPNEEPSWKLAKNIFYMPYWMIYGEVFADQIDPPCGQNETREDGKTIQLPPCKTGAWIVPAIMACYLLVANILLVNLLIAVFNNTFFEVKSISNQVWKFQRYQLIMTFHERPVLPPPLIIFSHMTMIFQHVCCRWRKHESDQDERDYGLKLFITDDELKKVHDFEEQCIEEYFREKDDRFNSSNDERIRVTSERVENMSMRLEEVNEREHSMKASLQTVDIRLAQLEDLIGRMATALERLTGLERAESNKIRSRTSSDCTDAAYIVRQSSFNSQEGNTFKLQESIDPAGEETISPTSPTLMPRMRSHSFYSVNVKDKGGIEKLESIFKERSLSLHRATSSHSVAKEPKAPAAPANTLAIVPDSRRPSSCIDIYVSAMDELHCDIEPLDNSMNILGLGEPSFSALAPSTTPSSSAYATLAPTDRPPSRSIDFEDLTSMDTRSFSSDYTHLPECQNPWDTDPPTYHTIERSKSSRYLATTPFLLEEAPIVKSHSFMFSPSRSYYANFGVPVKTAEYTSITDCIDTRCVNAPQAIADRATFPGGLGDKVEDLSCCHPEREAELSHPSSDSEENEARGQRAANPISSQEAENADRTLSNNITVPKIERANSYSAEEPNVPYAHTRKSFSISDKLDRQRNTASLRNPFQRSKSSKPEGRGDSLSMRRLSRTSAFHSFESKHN

SMILES	IC50 [nM]
Cc1oc2ccc(OCc3ccccc3)cc2c1C(=O)N1CCCC(N(C)C)C1 (stereo not shown) [Cpd 150, (5-(benzyloxy)-2-methylbenzofuran-3-yl)(3-(dimethylamino)piperidin-1-yl)methanone]	> 20000
Cc1oc2ccc(OCc3cccc(C(F)(F)F)c3)cc2c1C(=O)O [Cpd 025, 2-methyl-5-((3-(trifluoromethyl)benzyl)oxy)benzofuran-3-carboxylic acid]	1000 to 20000
Cc1oc2ccc(OCc3ccccc3)cc2c1C(=O)N[C@@H]1CCNC1=O [Cpd 070, 5-(benzyloxy)-2-methyl-N-(2-oxopyrrolidin-3-yl)benzofuran-3-carboxamide]	< 1000
Cc1oc2ccc(OCc3ccccc3)cc2c1C(=O)NCC(c1ccccc1)N(C)C (stereo not shown) [Cpd 216, 5-(benzyloxy)-N-(2-(dimethylamino)-2-phenylethyl)-2-methylbenzofuran-3-carboxamide]	1000 to 20000
Cc1oc2ccc(OC(C)c3ccccc3)cc2c1C(=O)NC1(CO)CCOCC1 (single isomer, unassigned) [Cpd 308-En 2, N-(4-(hydroxymethyl)tetrahydro-2H-pyran-4-yl)-2-methyl-5-(1-phenylethoxy)benzofuran-3-carboxamide]	< 1000
Cc1oc2ccc(OCc3ccccc3)cc2c1C(=O)N1CCCC(c2nc(C(C)C)no2)C1 (stereo not shown) [Cpd 243, (5-(benzyloxy)-2-methylbenzofuran-3-yl)(3-(3-isopropyl-1,2,4-oxadiazol-5-yl)piperidin-1-yl)-methanone]	> 20000
Cc1oc2ccc(COc3ccccc3F)cc2c1C(=O)NC(C)C(N)=O (single isomer, unassigned) [Cpd 320-En 1]	< 1000
Cc1oc2ccc(OCc3ccccc3)cc2c1C(=O)NC1CCN(C2COC2)CC1 [Cpd 208, 5-(benzyloxy)-2-methyl-N-(1-(oxetan-3-yl)piperidin-4-yl)benzofuran-3-carboxamide]	1000 to 20000
COc1ccc(COc2ccc3oc(C)c(C(=O)O)c3c2)cc1 [Cpd 014, 5-((4-methoxybenzyl)oxy)-2-methylbenzofuran-3-carboxylic acid]	1000 to 20000
Cc1oc2ccc(COc3ccccc3F)cc2c1C(=O)NC(C)C(N)=O (single isomer, unassigned) [Cpd 320-En 2]	< 1000
Cc1oc2ccc(OCc3ccccc3)cc2c1C(=O)NCc1cnccn1 [Cpd 102, 5-(benzyloxy)-2-methyl-N-(pyrazin-2-ylmethyl)benzofuran-3-carboxamide]	1000 to 20000
Cc1oc2ccc(OCc3ccccc3)cc2c1C(=O)N[C@H]1CC2CC[C@H](C1)N2C(=O)OC(C)(C)C [Cpd 258, tert-butyl (1R,3s,5S)-3-(5-(benzyloxy)-2-methylbenzofuran-3-carboxamido)-8-azabicyclo-[3.2.1]octane-8-carboxylate]	< 1000
Cc1oc2ccc(OCc3ccccc3F)cc2c1C(=O)NC1(CO)CCOC1 (single isomer, unassigned) [Cpd 327-En 1, 5-((2-fluorobenzyl)oxy)-N-(3-(hydroxymethyl)tetrahydrofuran-3-yl)-2-methylbenzofuran-3-carboxamide]	< 1000
Cc1oc2ccc(OCc3ccccc3)cc2c1C(=O)NC1(C(=O)O)CCOCC1 [Cpd 193, 4-(5-(benzyloxy)-2-methylbenzofuran-3-carboxamido)tetrahydro-2H-pyran-4-carboxylic acid]	1000 to 20000
O=C(O)c1coc2ccc(OCc3ccccc3)cc12 [Cpd 001, 5-(benzyloxy)benzofuran-3-carboxylic acid]	1000 to 20000
Cc1oc2ccc(OCc3ccccc3)cc2c1C(=O)NC1CNCCC1F (single isomer, unassigned) [Cpd 130-Dia 2]	< 1000
Cc1oc2ccc(OCc3ccccc3)cc2c1C(=O)N1CCOCC1 [Cpd 050, (5-(benzyloxy)-2-methylbenzofuran-3-yl)(morpholino)methanone]	> 20000
Cc1oc2ccc(OCc3ccccc3)cc2c1C(=O)NC1CCCNC1=O (stereo not shown) [Cpd 113, 5-(benzyloxy)-2-methyl-N-(2-oxopiperidin-3-yl)benzofuran-3-carboxamide]	< 1000
Cc1oc2ccc(OCc3cccc(F)c3)cc2c1C(=O)NCC1CCCO1 (stereo not shown) [Cpd 132, 5-((3-fluorobenzyl)oxy)-2-methyl-N-((tetrahydrofuran-2-yl)methyl)benzofuran-3-carboxamide]	< 1000
Cc1oc2ccc(OCc3ccccc3)cc2c1C(=O)N1CCC(N)CC1 [Cpd 073, (4-aminopiperidin-1-yl)(5-(benzyloxy)-2-methylbenzofuran-3-yl)methanone]	> 20000
Cc1oc2ccc(OC(CCN(C)C)c3ccccc3)cc2c1C(=O)NC1CCNC1=O (stereo not shown) [Cpd 224, 5-(3-(dimethylamino)-1-phenylpropoxy)-2-methyl-N-(2-oxopyrrolidin-3-yl)benzofuran-3-carboxamide]	> 20000
Cc1oc2ccc(OCc3ccc(C(F)(F)F)cc3)cc2c1C(=O)O [Cpd 026, 2-methyl-5-((4-(trifluoromethyl)benzyl)oxy)benzofuran-3-carboxylic acid]	> 20000
Cc1oc2ccc(OCc3ccccc3)cc2c1C(=O)NC1CCN(Cc2ccccc2)CC1 [Cpd 241, 5-(benzyloxy)-N-(1-benzylpiperidin-4-yl)-2-methylbenzofuran-3-carboxamide]	1000 to 20000
Cc1oc2ccc(OCc3ccccc3)cc2c1C(=O)NC1(CO)COC1 [Cpd 092, 5-(benzyloxy)-N-(3-(hydroxymethyl)oxetan-3-yl)-2-methylbenzofuran-3-carboxamide]	< 1000
Cc1oc2ccc(OCc3ccccc3)cc2c1C(=O)NCc1cccnc1 [Cpd 100, 5-(benzyloxy)-2-methyl-N-(pyridin-3-ylmethyl)benzofuran-3-carboxamide]	1000 to 20000
Cc1oc2ccc(OCc3ccccc3)cc2c1C(=O)NCC1CCCO1 (stereo not shown) [Cpd 087, 5-(benzyloxy)-2-methyl-N-((tetrahydrofuran-2-yl)methyl)benzofuran-3-carboxamide]	< 1000
Cc1oc2c(C#N)cc(OCc3ccccc3)cc2c1C(=O)NC1CNCC1(F)F (single isomer, unassigned) [Cpd 305-En 2, 5-(benzyloxy)-7-cyano-N-(4,4-difluoropyrrolidin-3-yl)-2-methylbenzofuran-3-carboxamide]	> 20000
Cc1oc2ccc(OCc3ccccc3F)cc2c1C(=O)NC1(CO)CCOC1 (single isomer, unassigned) [Cpd 327-En 2, 5-((2-fluorobenzyl)oxy)-N-(3-(hydroxymethyl)tetrahydrofuran-3-yl)-2-methylbenzofuran-3-carboxamide]	< 1000
Cc1oc2ccc(OCc3ccccc3)c(C)c2c1C(=O)NC1CNCC1(F)F (single isomer, unassigned) [Cpd 299-En 1, 5-(benzyloxy)-N-(4,4-difluoropyrrolidin-3-yl)-2,4-dimethylbenzofuran-3-carboxamide]	< 1000

The remaining lines, values ahead:

IC50 [nM]	SMILES
1000 to 20000	Cc1oc2ccc(OCc3ccccc3)cc2c1C(=O)NC1CCN(CCN(C)C)CC1 [Cpd 225, 5-(benzyloxy)-N-(1-(2-(dimethylamino)ethyl)piperidin-4-yl)-2-methylbenzofuran-3-carboxamide]
< 1000	Cc1oc2ccc(OCc3ccccc3F)cc2c1C(=O)NC(C)CO (single isomer, unassigned) [Cpd 328-En 1]
1000 to 20000	Cc1oc2ccc(OCc3ccccc3)cc2c1C(=O)NC1CNC(=O)C1 (stereo not shown) [Cpd 068, 5-(benzyloxy)-2-methyl-N-(5-oxopyrrolidin-3-yl)benzofuran-3-carboxamide]
< 1000	Cc1oc2ccc(OCc3ccccc3)cc2c1C(=O)N[C@H]1CN[C@H](C(N)=O)C1 [Cpd 158, (2S,4R)-4-(5-(benzyloxy)-2-methylbenzofuran-3-carboxamido)pyrrolidine-2-carboxamide]
< 1000	Cc1oc2ccc(OCc3ccccc3F)cc2c1C(=O)N[C@@H]1COC[C@@H]1O (single isomer, unassigned) [Cpd 329-En 1]
< 1000	Cc1oc2ccc(OCc3ccccc3F)cc2c1C(=O)N[C@H]1CCNC1 [Cpd 095, (S)-5-((2-fluorobenzyl)oxy)-2-methyl-N-(pyrrolidin-3-yl)benzofuran-3-carboxamide]
< 1000	Cc1oc2ccc(OCc3c(F)cccc3F)cc2c1C(=O)NC1CCNCC1(F)F (stereo not shown) [Cpd 226, 5-((2,6-difluorobenzyl)oxy)-N-(3,3-difluoropiperidin-4-yl)-2-methylbenzofuran-3-carboxamide]
1000 to 20000	Cc1oc2ccc(OCc3cccc(OC(F)(F)F)c3)cc2c1C(=O)N[C@H]1CCNC1 [Cpd 223, (S)-2-methyl-N-(pyrrolidin-3-yl)-5-((3-(trifluoromethoxy)benzyl)oxy)benzofuran-3-carboxamide]
< 1000	Cc1oc2ccc(OCc3ccccc3)cc2c1C(=O)NC1CCCNC1 (stereo not shown) [Cpd 075, 5-(benzyloxy)-2-methyl-N-(piperidin-3-yl)benzofuran-3-carboxamide]
1000 to 20000	Cc1oc2ccc(OCc3c(F)cccc3F)cc2c1C(=O)N[C@H]1CCN(C(=O)OC(C)(C)C)C1 [Cpd 257, tert-butyl (S)-3-(5-((2,6-difluorobenzyl)oxy)-2-methylbenzofuran-3-carboxamido)pyrrolidine-1-carboxylate]
> 20000	Cc1oc2ccc(OCc3ccccc3F)cc2c1C(=O)NC1COCC1(F)F (single isomer, unassigned) [Cpd 331-En 1]
< 1000	Cc1oc2ccc(OCc3cccc(F)c3)cc2c1C(=O)N[C@H]1CCNC1 [Cpd 096, (S)-5-((3-fluorobenzyl)oxy)-2-methyl-N-(pyrrolidin-3-yl)benzofuran-3-carboxamide]
1000 to 20000	Cc1oc2ccc(OCc3ccccc3)cc2c1C(=O)NC1(CO)CCN(C(=O)OC(C)(C)C)CC1 [Cpd 262, tert-butyl 4-(5-(benzyloxy)-2-methylbenzofuran-3-carboxamido)-4-(hydroxymethyl)piperidine-1-carboxylate]
< 1000	Cc1oc2ccc(OCc3ccccc3F)cc2c1C(=O)N[C@@H]1COC[C@@H]1O (single isomer, unassigned) [Cpd 329-En 2]
